What all share (format): cell-based, human
Series [1] concerns undifferentiated iPSCs (2.038). Briefly: Generation of definitive endoderm (DE) from undifferentiated iPSCs with or without CHIR. To be noted: for CXCR4/CD117 co-expressing cells / Output DE Day 7: 2 μM CHIR (+). As for the experimental part:
Undifferentiated iPSCs maintained using Essential 8 on Matrigel were plated at a seeding density of 13,000 cells/cm^2 on Matrigel. Four days-post-plating, the cells were placed in 90% RPMI/10% SFD media containing 100 ng/mL Activin A for one day followed by incubation with 90% RPMI/10% SFD supplemented with 100 ng/mL Activin A, 2.5 ng/mL BMP4, 10 ng/mL VEGF, and 10 ng/mL zebrafish FGF2 for the next two days. From day 4-12, the cells were placed in SFD media supplemented with 100 ng/mL Activin A, 2.5 ng/mL BMP4, 10 ng/mL VEGF, and 10 ng/mL zebrafish FGF2. Supplementation with 2 μM CHIR was included in one set at day 1 of differentiation while it was omitted in another set. The cells were harvested on day 7 using TrypLE. The total viable cell number post digestion was determined at each time point. The percentage of CXCR4, CD117 co-expressing cells was determined by cell surface staining by flow cytometry (Table 1). The absolute number of CXCR4/CD117 double-positive cells was calculated. The ratio of input iPSC to output DE was also quantified (Table 1).

Series [2] concerns 2.038AT4 cells. Briefly: Beta cell differentiation of 2.038AT4 EPCs with Dox induction, intracellular flow cytometry. To be noted: Dox 1.5 μg/ml between day 10-15, harvested day 15, repeat experiment. As for the experimental part: 2.038AT4.14EGN (also called 2.038AT4) cells were maintained in Essential 8 under hypoxic conditions during DE induction without CHIR using 2.5 ng/ml BMP4. DE were maintained in EPC cycling media without MEFs under hypoxic conditions. Media was supplemented with neomycin (100 ug/ml) and puromycin (600 ng/ml) for iPSC culture, DE culture, and EPC cycling. At P7, EPC were harvested and MACS purification was performed using CD34/CXCR4/CD117. Purified cells were plated on neat Matrigel in the presence of a Rock inhibitor.
Beta cell differentiation was initiated 5 days post re-aggregation according to the protocol described by Nostro et al. (2011) further modified by Cheng et al. (2012a) in a 2D format. Dox was added at different stages of the beta cell differentiation process. Dox (1.5 μg/ml) induction was performed between days 6-15 of beta cell differentiation, between days 8-15 of beta cell differentiation, or between days 10-15 of beta cell differentiation. The cells were harvested on day 15 of beta cell differentiation, fixed, and stained for quantification of PDX/NeuroD1/C-peptide/Glucagon/Somatostatin by intracellular flow cytometry.
The experiment was performed again with the addition of Dox (1.5 μg/ml) between day 10-15 of beta cell differentiation. The cells were harvested on day 15 of beta cell differentiation and assayed for PDX/NeuroD1/C-Peptide/Glucagon/Somatostatin expression levels by intracellular flow cytometry. […] The total C-Peptide levels were around 10% of which 5% of cells appeared monohormonal. Glucagon expression was not recorded. C-peptide release assays were performed as described above. […] Both the Dox induced and un-induced beta cell cultures were capable of eliciting a dose-dependent response to glucose (FIG. 30).

Series [3] has as its system beta cells derived from 2.038AT4 cells. Briefly: C-peptide release assay (glucose responsiveness) of end-stage beta cells. On the procedure:
C-peptide release assays were performed as previously described (D'Amour et al., 2006) using a Mercodia Ultrasensitive C-peptide ELISA kit (Mercodia). Briefly, aggregates that were beyond day 25 in the beta cell differentiation protocol from each iPSC clone were placed in a millicell PCF insert within a 24 well plate. The aggregates were equilibrated in 1 ml KRBH medium for one hour at 37° C. and 5% CO2, 20% O2. The aggregates were next placed in a second well containing 0.5 ml KRBH medium supplemented with serially increasing levels of glucose from 1-20 mM. Each incubation lasted for 20 mins at 37° C. and 5% CO2, 20% O2. Extreme care was taken to drain the aggregates of all residual fluid between well transfers. The supernatant left behind was collected and stored at −20° C. At the end of the experiment the aggregates were digested with TryPLE and the total viable cell count per sample was determined to normalize the data. C-peptide secretion was normalized based on the total viable cell number taken for each sample.
C-peptide release assays were performed as described in Example 12. Beta cell cultures induced with Dox induction between days 10-15 generated a response to between 1-5 mM glucose (FIG. 28). […]
The experiment was performed again with the addition of Dox (1.5 μg/ml) between day 10-15 of beta cell differentiation. […] Glucagon expression was not recorded. […]

Series [4] has as its system 2.038AT4 cells. Briefly: qPCR analysis of ERG and GFI expression. The following applies: Dox induction during beta cell differentiation. On the procedure: The levels of ERG (FIG. 32A) and GFI (FIG. 32B) transcripts at different stages of the process were quantified from 2.038 and 2.038AT4 cells. Dox induction of 2.038AT4 cells was only applied at the beta cell differentiation stage. Cells from 2.038AT4 were always cultured in media containing neomycin (100 μg/mL) and puromycin (600 ng/mL) regardless of stage of differentiation. RNA was isolated from undifferentiated iPSC, DE, EPC, and beta cell cultures derived from 2.038 cells and 2.038AT4 cells using the RNeasy Plus Mini Kit from Qiagen (Catalog #74136) according to the manufacturer's directions. RNA quantification was performed using the Nanodrop 2000. RNA was reverse transcribed with the ImProm-II RT System from Promega (Catalog # A3800) according to manufacturer's directions. rt-qPCR was performed using TaqMan Gene Expression Master Mix (Catalog #4369016) and TaqMan probes (ERG: Hs01554629_m1; GFI1: Hs00382207_m1; GAPDH: Hs99999905_m1) with technical triplicates and run on the Roche LightCycler for 45 cycles. Fold induction was calculated by DeltaCp with normalization to GAPDH. Undifferentiated iPSCs of the same genetic background were used as negative controls. Whole pancreas RNA (Ambion Catalog # AM7954) and human islets provided by the UW Islet Core were used as positive controls.
For orientation: Real-time PCR tracks product formation cycle by cycle.

As for `Cc1c[nH]c(-c2cnc(NCCNc3ccc(C#N)cn3)nc2-c2ccc(Cl)cc2Cl)n1` [CHIR, CHIR99021], the CXCR4/CD117 co-expressing cells in series [1] (cell line 2.038 (1131), format 6 well, harvested day 7) was determined as 45%; in series [1] (cell line 2.038, format T150, harvested day 7), 54%. Besides, the “Output DE Day 7” value is reported as 84 ×10^6 in series [1] (cell line 2.038 (1131), format 6 well, input iPSCs 1.95 ×10^6) and 186 ×10^6 in series [1] (cell line 2.038, format T150, input iPSCs 5.85 ×10^6). Further, the “Effect on efficiency of DE formation” value in series [1] (CHIR added on day zero of endoderm induction) is given as “did not result in increased efficiency of DE formation”.

In the case of `C[C@H]1c2cccc(O)c2C(=O)C2=C(O)[C@]3(O)C(=O)C(C(N)=O)=C(O)[C@@H](N(C)C)[C@@H]3[C@@H](O)[C@@H]21` [Dox, Doxycycline], in series [2], the Monohormonal cells is on record as 5%, the PDX/NeuroD1 expression is given as 25%-30 and the “Total C-Peptide levels” value was “around 10%”. Further, in series [3] (Dox 1.5 μg/ml between day 10-15, repeat experiment, un-induced cultures also responded), the “Glucose concentration range of dose-dependent C-peptide response” value was 1 to 15 mM. In addition, the “Glucose concentration range eliciting C-peptide response” value in series [3] (Dox induction between days 10-15) lay in the range of 1 to 5 mM. Moreover, the “Level of ERG/GFI transcripts” value in series [4] is reported as “slight increase”.

(Values after patent publication US10266807B2, “Methods and compositions for culturing endoderm progenitor cells in suspension” (FUJIFILM Cellular Dynamics, Inc., priority 2013, dated 2019).)
